Data published in patent US12239645B2, “Targeted dosing for the treatment of complement mediated disorders” (Achillion Pharmaceuticals, Inc., priority 2018, dated 2025).
In brackets after ≈: the same amount, converted by molar mass. Like-named read-outs stand apart in the source and are kept apart here.

Key:
[1] = system: complement alternative pathway (AP) activity; test: MAD study: serum AP activity ex vivo by AP Wieslab assay; format: in vivo, human; conditions: for % AUEC0-12 / DURATION0-12: Days 7 and 14 combined analysis
Protocol: Serum AP hemolysis activity was assessed in samples collected from all cohorts at predefined time points from Day 1 (pre-dose) through Day 21. Intense sampling was obtained on Day 1 (0 h to 12 h), Day 7 (0 h to 12 h), and Day 14 (0 h to 16 h); all other serum samples were collected at 0 h (morning PK troughs) on the indicated days. Activity for each cohort is shown for the complete time course Day 1-21 (FIG. 17), Day 1 (FIG. 18), Day 7 (FIG. 19) and Day 14 (FIG. 20). Serum complement AP activity measured ex vivo by the AP Wieslab assay, serum total complement classical pathway (CP) activity, plasma complement Bb concentrations, and serum FD, C3, and C4 concentrations were also measured at predefined time points.

[2] = Multiple ascending dose (MAD) study: multiple-dose pharmacokinetics; format: in vivo, human; conditions: for concentration at 120 h: Day 6, 0 hr post-dose (120 h); for concentration at 132 h: Day 6, 12 hr post-dose (132 h); for concentration at 156 h: Day 7, 12 hr post-dose (156 h); for concentration at 168 h: Day 8, 0 hr post-dose (168 h); for concentration at 192 h: Day 9, 0 hr post-dose (192 h); for concentration at 288 h: Day 13, 0 hr post-dose (288 h); for concentration at 300 h: Day 13, 12 hr post-dose (300 h); for concentration at 312 h: Day 14, 0 hr post-dose (312 h); for Cmax: read-out: Cmax, Mean
Protocol: A multiple ascending dose (MAD) study of Compound 1 with two additional single-dose cohorts was also completed. […] Secondary objectives included evaluation of the pharmacokinetic (PK) profile and the relationship between Compound 1 PK and pharmacodynamic (PD) characteristics, that is, the inhibition of complement alternative pathway (AP) activity (PK/PD). In the MAD study, multiple-dose pharmacokinetics and pharmacodynamics of Compound 1 were evaluated in four dose groups administered Compound 1 (40, 80, 120 and 200 mg BID) in the fasted state for 14-days (Table 3). Eight subjects received active drug in each group; eight subjects received placebo in the first dose group (40 mg) and two subjects received placebo in each of the other three dose groups. Two additional cohorts were administered Compound 1 at single doses of 240 mg (fasted subjects) and 120 mg (fed subjects) (Table 3). The two single-dose cohorts each comprised six subjects receiving active drug and two subjects receiving placebo. Plasma and serum samples for PK and PD assessment were collected on selected days prior to dosing (at local troughs), and on days 1, 7, and 14 at 0.5-hour to 2-hour intervals for more detailed assessment.

[3] = Homo sapiens, sigmoidal model, multiple-dose cohorts
[4] = human, plasma, oral, 40 mg BID, read-out: Pre-dose (trough) plasma concentration, Mean
[5] = human, plasma, oral, 40 mg, 40 mg BID × 14 Days, Day 1
[6] = human, plasma, oral, 40 mg, 40 mg BID × 14 Days, Day 7
[7] = human, plasma, oral, 40 mg, 40 mg BID × 14 Days, Day 14
[8] = human, plasma, oral, 80 mg BID, read-out: Pre-dose (trough) plasma concentration, Mean
[9] = human, plasma, oral, 80 mg, 80 mg BID × 14 Days, Day 1
[10] = human, plasma, oral, 80 mg, 80 mg BID × 14 Days, Day 7
[11] = human, plasma, oral, 80 mg, 80 mg BID × 14 Days, Day 14
[12] = human, plasma, oral, 80 mg, 80 mg BID, read-out: Pre-dose (trough) plasma concentration, Mean

For CC(=O)c1nn(CC(=O)N2[C@H](C(=O)Nc3nc(Br)ccc3C)C[C@@]3(C)C[C@@H]23)c2ccc(-c3cnc(C)nc3)cc12 [Compound 1, (1R,3S,5R)-2-(2-(3-acetyl-5-(2-methylpyrimidin-5-yl)-1H-indazol-1-yl)acetyl)-N-(6-bromo-3-methylpyridin-2-yl)-5-methyl-2-azabicyclo[3.1.0]hexane-3-carboxamide], the “% AUEC0-12” value ([1]; 120 mg BID) was 98.6%, the DURATION0-12 ([1]; 120 mg BID) was 11.6 h and the “% AUEC0-12” value ([1]; 200 mg BID) was 99.3%. The DURATION0-12 ([1]; 200 mg BID) was 11.9 h, the inhibition at 120 mg ([1]; Homo sapiens, 120 mg BID and 200 mg BID, read-out: calculated percent inhibition across 0 h and 12 h time points) was greater than 90% and the EC50 ([1]; Homo sapiens, Emax model, multiple-dose cohorts) was 0.0143 µg/mL (≈ 0.0237 µM). The EC50 [1, 3] was 0.0192 µg/mL (≈ 0.0319 µM), the EC90 [1, 3] was 0.0669 µg/mL (≈ 0.111 µM) and the “Mean pre-dose concentrations at steady-state, range” value (“Mean pre-dose concentrations” below) ([2]; 40 mg BID) was 15.6 to 23.5 ng/mL. The “Mean pre-dose concentrations” value ([2]; 80 mg BID) was 45.9 to 83.7 ng/mL, the “Mean pre-dose concentrations” value ([2]; 120 mg BID) was 80.6 to 153 ng/mL and the “Mean pre-dose concentrations” value ([2]; 200 mg BID) was 247 to 392 ng/mL. It also gave a concentration at 120 h [2, 4] of 27.8 ng/mL, a concentration at 132 h [2, 4] of 17.9 ng/mL and a concentration at 144 h ([2]; human, plasma, oral, 40 mg BID, Day 7, 0 hr post-dose (144 h), read-out: Pre-dose (trough) plasma concentration, Mean) of 24.3 ng/mL. For the same compound, the concentration at 156 h [2, 4] was 15.7 ng/mL, the concentration at 168 h [2, 4] was 27.8 ng/mL and the concentration at 192 h [2, 4] was 26.9 ng/mL. The concentration at 288 h [2, 4] was 23.5 ng/mL, the concentration at 300 h [2, 4] was 15.3 ng/mL and the concentration at 312 h [2, 4] was 25.2 ng/mL. The concentration at 324 h ([2]; human, plasma, oral, 40 mg BID, Day 14, 12 hr post-dose (324 h), read-out: Pre-dose (trough) plasma concentration, Mean) was 16.2 ng/mL, the concentration at 12 h ([2]; human, plasma, oral, 40 mg BID, all 12 hr (evening) troughs, read-out: Mean C(12), steady-state trough) was 15.6 ng/mL and the Tmax [2, 5] was 1.56 h. For the same compound, the AUC(0-t) ([2]; human, plasma, oral, 40 mg, 40 mg BID × 14 Days, Day 1, read-out: AUC(0-12), Mean) was 392 ng·h/mL, the Cmax [2, 5] was 107 ng/mL and the Tmax [2, 6] was 1.8 h. It also gave an AUC(0-t) ([2]; human, plasma, oral, 40 mg, 40 mg BID × 14 Days, Day 7, read-out: AUC(0-12), Mean) of 741 ng·h/mL, an AUC(0-t) ([2]; human, plasma, oral, 40 mg, 40 mg BID × 14 Days, Day 7, read-out: AUC(0-24), Mean) of 1480 ng·h/mL and a Cmax [2, 6] of 169 ng/mL. The Tmax [2, 7] was 1.58 h, the AUC(0-t) ([2]; human, plasma, oral, 40 mg, 40 mg BID × 14 Days, Day 14, read-out: AUC(0-12), Mean) was 732 ng·h/mL and the AUC(0-t) ([2]; human, plasma, oral, 40 mg, 40 mg BID × 14 Days, Day 14, read-out: AUC(0-24), Mean) was 1460 ng·h/mL. For the same compound, the Cmax [2, 7] was 156 ng/mL, the concentration at 156 h [2, 8] was 43.7 ng/mL and the concentration at 168 h [2, 8] was 109 ng/mL. The concentration at 192 h [2, 8] was 102 ng/mL, the concentration at 288 h [2, 8] was 63.3 ng/mL and the concentration at 300 h [2, 8] was 45.2 ng/mL. The concentration at 312 h [2, 8] was 85 ng/mL, the Tmax [2, 9] was 1.79 h and the AUC(0-t) ([2]; human, plasma, oral, 80 mg, 80 mg BID × 14 Days, Day 1, read-out: AUC(0-12), Mean) was 856 ng·h/mL. For the same compound, the Cmax [2, 9] was 207 ng/mL, the Tmax [2, 10] was 2 h and the AUC(0-t) ([2]; human, plasma, oral, 80 mg, 80 mg BID × 14 Days, Day 7, read-out: AUC(0-12), Mean) was 1990 ng·h/mL. For the same compound, the AUC(0-t) ([2]; human, plasma, oral, 80 mg, 80 mg BID × 14 Days, Day 7, read-out: AUC(0-24), Mean) was 3990 ng·h/mL, the Cmax [2, 10] was 472 ng/mL and the Tmax [2, 11] was 2.14 h. For the same compound, the AUC(0-t) ([2]; human, plasma, oral, 80 mg, 80 mg BID × 14 Days, Day 14, read-out: AUC(0-12), Mean) was 1980 ng·h/mL, the AUC(0-t) ([2]; human, plasma, oral, 80 mg, 80 mg BID × 14 Days, Day 14, read-out: AUC(0-24), Mean) was 3970 ng·h/mL and the Cmax [2, 11] was 453 ng/mL. The concentration at 120 h [2, 12] was 73.8 ng/mL and the concentration at 132 h [2, 12] was 52.1 ng/mL.
